“And” between values parts separate entries of the source, which are not always exact repeats. Identical values can stand only once. “Also recorded” adds a separate entry of the source. Like-named read-outs stand apart in the source and are kept apart here.
Experiments:
SARS2 = format: cell-based, SARS-CoV-2; settings: for Infection Data, Average, Mean percentage infection relative to DMSO control: Average of Exp 1 (SMW491) and Exp 2 (SMW492); for Infection Data, Percentage Infection Relative to Appropriate DMSO Control: single well, avg background subtraction; for Percentage Inhibition Average 1 μM / Screening data (Relative infection to DMSO controls) Average 1 μM: SARS2, 1 μM; for Screening data (Relative infection to DMSO controls) Average 1 μM / Screening data (Relative infection to DMSO controls) Average 5 μM / Screening data (Relative infection to DMSO controls) Average 10 μM / Screening data (Relative infection to DMSO controls) Average 25 μM / Screening data (Relative infection to DMSO controls) Average 50 μM / Average (relative infection to DMSO over the 5 tested concentrations): 100=DMSO control; for Percentage Inhibition Average 5 μM / Screening data (Relative infection to DMSO controls) Average 5 μM: SARS2, 5 μM; for Percentage Inhibition Average 10 μM / Screening data (Relative infection to DMSO controls) Average 10 μM: SARS2, 10 μM; for Percentage Inhibition Average 25 μM / Screening data (Relative infection to DMSO controls) Average 25 μM: SARS2, 25 μM; for Percentage Inhibition Average 50 μM / Screening data (Relative infection to DMSO controls) Average 50 μM: SARS2, 50 μM; for Average (relative infection to DMSO over the 5 tested concentrations): SARS2, average over 1 to 50 uM; for Percentage Infection Relative to Appropriate DMSO Control with Avg Background Subtraction: Greiner Celigo plates; for Infection Data, Average, Mean: average of Exp 1-3 (SMW475, SMW477, SMW478)
cells (nuclei count) = settings: for Relative cell count to DMSO controls, Average 1 μM / Relative cell count to DMSO controls, Average 5 μM / Relative cell count to DMSO controls, Average 10 μM / Relative cell count to DMSO controls, Average 25 μM / Relative cell count to DMSO controls, Average 50 μM: toxicity data, 100=DMSO control; for Toxicity Data, Average, Mean percentage relative to DMSO control: Average of Exp 1 (SMW491) and Exp 2 (SMW492); for Toxicity Data, Percentage Relative to Appropriate DMSO Control: single well; for Relative cell count to DMSO controls, Average (for correlation analysis): average value over the 5 tested concentrations (1 to 50 uM); for Toxicity Data, Average, Mean: average of Exp 1-3 (SMW475, SMW477, SMW478)

CC1=C(C(=O)OC2CCCCCCC2)C(c2ccc3c(c2)OCO3)NC(=O)N1 (centres unmarked) [UMB22_5]
SARS2 antiviral activity (SARS2): improved activity than ring open analogs

COc1ccc(CNCCc2ccccc2F)c(OCC(O)CN2CCCC2)c1 (racemic) [SILCS43]
SARS2 antiviral activity (SARS2): highest activity to date; also recorded: most potent
potency relative to UMB18 (more potent) (SARS2): 3-4
Infection Data, Average, Mean percentage infection relative to DMSO control (SARS2; n=4, 1 uM): 18.21%
Infection Data, Average, Mean percentage infection relative to DMSO control (SARS2; n=4, 5 uM): 6.50%
Infection Data, Average, Mean percentage infection relative to DMSO control (SARS2; n=4, 10 uM): 0.85%
Infection Data, Average, Mean percentage infection relative to DMSO control (SARS2; n=4, 25 uM): 6.12%
Infection Data, Average, Mean percentage infection relative to DMSO control (SARS2; n=4, 50 uM): −13.34%
Infection Data, Percentage Infection Relative to Appropriate DMSO Control (SARS2; Exp 1 (SMW491), 1 uM): 11.14% and 9.36%
Infection Data, Percentage Infection Relative to Appropriate DMSO Control (SARS2; Exp 1 (SMW491), 5 uM): 5.93% and 4.01%
Infection Data, Percentage Infection Relative to Appropriate DMSO Control (SARS2; Exp 1 (SMW491), 10 uM): 0.28% and −0.66%
Infection Data, Percentage Infection Relative to Appropriate DMSO Control (SARS2; Exp 1 (SMW491), 25 uM): 1.98% and −0.83%
Infection Data, Percentage Infection Relative to Appropriate DMSO Control (SARS2; Exp 1 (SMW491), 50 uM): −10.07%
Infection Data, Percentage Infection Relative to Appropriate DMSO Control (SARS2; Exp 2 (SMW492), 1 uM): 18.42% and 33.91%
Infection Data, Percentage Infection Relative to Appropriate DMSO Control (SARS2; Exp 2 (SMW492), 10 uM): 1.81% and 1.99%
Infection Data, Percentage Infection Relative to Appropriate DMSO Control (SARS2; Exp 2 (SMW492), 50 uM): −16.61%
Percentage Inhibition Average 1 μM (SARS2): 81.79%
Screening data (Relative infection to DMSO controls) Average 1 μM (SARS2): 18.21
Percentage Inhibition Average 5 μM (SARS2): 93.50%
Screening data (Relative infection to DMSO controls) Average 5 μM (SARS2): 6.50
Percentage Inhibition Average 10 μM (SARS2): 99.15%
Screening data (Relative infection to DMSO controls) Average 10 μM (SARS2): 0.85
Percentage Inhibition Average 25 μM (SARS2): 93.88%
Screening data (Relative infection to DMSO controls) Average 25 μM (SARS2): 6.12
Percentage Inhibition Average 50 μM (SARS2): 113.34%
Screening data (Relative infection to DMSO controls) Average 50 μM (SARS2): −13.34
Average (relative infection to DMSO over the 5 tested concentrations) (SARS2): 3.67
apparent IC50 (SARS2; racemic mixture): high nanomolar range
Relative cell count to DMSO controls, Average 1 μM (cells (nuclei count)): 154.73
Relative cell count to DMSO controls, Average 5 μM (cells (nuclei count)): 151.78
Relative cell count to DMSO controls, Average 10 μM (cells (nuclei count)): 132.39
Relative cell count to DMSO controls, Average 25 μM (cells (nuclei count)): 136.27
Relative cell count to DMSO controls, Average 50 μM (cells (nuclei count)): 0.01
Toxicity Data, Average, Mean percentage relative to DMSO control (cells (nuclei count); n=4, 1 uM): 154.73%
Toxicity Data, Average, Mean percentage relative to DMSO control (cells (nuclei count); n=4, 5 uM): 151.78%
Toxicity Data, Average, Mean percentage relative to DMSO control (cells (nuclei count); n=4, 10 uM): 132.39%
Toxicity Data, Average, Mean percentage relative to DMSO control (cells (nuclei count); n=4, 25 uM): 136.27%
Toxicity Data, Average, Mean percentage relative to DMSO control (cells (nuclei count); n=4, 50 uM): 0.01%
Toxicity Data, Percentage Relative to Appropriate DMSO Control (cells (nuclei count); Exp 1 (SMW491), 1 uM): 151% and 166%
Toxicity Data, Percentage Relative to Appropriate DMSO Control (cells (nuclei count); Exp 1 (SMW491), 5 uM): 130% and 166%
Toxicity Data, Percentage Relative to Appropriate DMSO Control (cells (nuclei count); Exp 1 (SMW491), 10 uM): 118% and 121%
Toxicity Data, Percentage Relative to Appropriate DMSO Control (cells (nuclei count); Exp 1 (SMW491), 25 uM): 121% and 136%
Toxicity Data, Percentage Relative to Appropriate DMSO Control (cells (nuclei count); Exp 1 (SMW491), 50 uM): 0%
Toxicity Data, Percentage Relative to Appropriate DMSO Control (cells (nuclei count); Exp 2 (SMW492), 1 uM): 156% and 145%
Toxicity Data, Percentage Relative to Appropriate DMSO Control (cells (nuclei count); Exp 2 (SMW492), 5 uM): 155% and 156%
Toxicity Data, Percentage Relative to Appropriate DMSO Control (cells (nuclei count); Exp 2 (SMW492), 10 uM): 145% and 146%
Toxicity Data, Percentage Relative to Appropriate DMSO Control (cells (nuclei count); Exp 2 (SMW492), 25 uM): 143% and 145%
Toxicity Data, Percentage Relative to Appropriate DMSO Control (cells (nuclei count); Exp 2 (SMW492), 50 uM): 0%
Relative cell count to DMSO controls, Average (for correlation analysis) (cells (nuclei count)): 115.04

CCN(CC)CCN(Cc1cccs1)C(=O)c1cccs1 [SILCS34]
Percentage Infection Relative to Appropriate DMSO Control with Avg Background Subtraction (SARS2; Exp 1 (SMW475), 1 uM): 84.46% and 79.06% and 78.77%
Percentage Infection Relative to Appropriate DMSO Control with Avg Background Subtraction (SARS2; Exp 1 (SMW475), 5 uM): 83.89% and 91.52% and 85.89%
Percentage Infection Relative to Appropriate DMSO Control with Avg Background Subtraction (SARS2; Exp 1 (SMW475), 10 uM): 120.42% and 77.92% and 112.44%
Percentage Infection Relative to Appropriate DMSO Control with Avg Background Subtraction (SARS2; Exp 1 (SMW475), 25 uM): 73.54% and 67.42% and 88.43%
Percentage Infection Relative to Appropriate DMSO Control with Avg Background Subtraction (SARS2; Exp 1 (SMW475), 50 uM): 98.27% and 86.62% and 67.73%
Percentage Infection Relative to Appropriate DMSO Control with Avg Background Subtraction (SARS2; Exp 2 (SMW477), 1 uM): 117.81% and 129.29% and 121.32%
Percentage Infection Relative to Appropriate DMSO Control with Avg Background Subtraction (SARS2; Exp 2 (SMW477), 5 uM): 137.43% and 146.89% and 126.80%
Percentage Infection Relative to Appropriate DMSO Control with Avg Background Subtraction (SARS2; Exp 2 (SMW477), 10 uM): 142.94% and 144.38% and 155.80%
Percentage Infection Relative to Appropriate DMSO Control with Avg Background Subtraction (SARS2; Exp 2 (SMW477), 25 uM): 109.38% and 111.61% and 103.44%
Percentage Infection Relative to Appropriate DMSO Control with Avg Background Subtraction (SARS2; Exp 2 (SMW477), 50 uM): 62.30% and 66.46% and 58.63%
Percentage Infection Relative to Appropriate DMSO Control with Avg Background Subtraction (SARS2; Exp 3 (SMW478), 1 uM): 120.13% and 101.31% and 117.84%
Percentage Infection Relative to Appropriate DMSO Control with Avg Background Subtraction (SARS2; Exp 3 (SMW478), 5 uM): 108.72% and 96.17% and 137.98%
Percentage Infection Relative to Appropriate DMSO Control with Avg Background Subtraction (SARS2; Exp 3 (SMW478), 10 uM): 127.49% and 93.45% and 116.79%
Percentage Infection Relative to Appropriate DMSO Control with Avg Background Subtraction (SARS2; Exp 3 (SMW478), 25 uM): 164.75% and 165.91% and 139.33%
Percentage Infection Relative to Appropriate DMSO Control with Avg Background Subtraction (SARS2; Exp 3 (SMW478), 50 uM): 145.01% and 171.02% and 138.34%
Percentage Inhibition Average 1 μM (SARS2): −5.55%
Screening data (Relative infection to DMSO controls) Average 1 μM (SARS2): 105.55
Percentage Inhibition Average 5 μM (SARS2): −12.81%
Screening data (Relative infection to DMSO controls) Average 5 μM (SARS2): 112.81
Percentage Inhibition Average 10 μM (SARS2): −21.29%
Screening data (Relative infection to DMSO controls) Average 10 μM (SARS2): 121.29
Percentage Inhibition Average 25 μM (SARS2): −13.76%
Screening data (Relative infection to DMSO controls) Average 25 μM (SARS2): 113.76
Percentage Inhibition Average 50 μM (SARS2): 0.62%
Screening data (Relative infection to DMSO controls) Average 50 μM (SARS2): 99.38
Average (relative infection to DMSO over the 5 tested concentrations) (SARS2): 110.56
Infection Data, Average, Mean (SARS2; n 9, 1 uM): 105.55%
Infection Data, Average, Mean (SARS2; n 9, 5 uM): 112.81%
Infection Data, Average, Mean (SARS2; n 9, 10 uM): 121.29%
Infection Data, Average, Mean (SARS2; n 9, 25 uM): 113.76%
Infection Data, Average, Mean (SARS2; n 9, 50 uM): 99.38%
Relative cell count to DMSO controls, Average 1 μM (cells (nuclei count)): 102.47
Relative cell count to DMSO controls, Average 5 μM (cells (nuclei count)): 99.62
Relative cell count to DMSO controls, Average 10 μM (cells (nuclei count)): 91
Relative cell count to DMSO controls, Average 25 μM (cells (nuclei count)): 89.42
Relative cell count to DMSO controls, Average 50 μM (cells (nuclei count)): 67.85
Toxicity Data, Average, Mean (cells (nuclei count); n 9, 1 uM): 102.47%
Toxicity Data, Average, Mean (cells (nuclei count); n 9, 5 uM): 99.62%
Toxicity Data, Average, Mean (cells (nuclei count); n 9, 10 uM): 91.00%
Toxicity Data, Average, Mean (cells (nuclei count); n 9, 25 uM): 89.42%
Toxicity Data, Average, Mean (cells (nuclei count); n 9, 50 uM): 67.85%
Relative cell count to DMSO controls, Average (for correlation analysis) (cells (nuclei count)): 90.07

O=C(NC1CCCCCC1)c1cn[nH]c1-c1ccc2c(c1)OCCO2 [UMB22_16]
SARS2 antiviral activity (SARS2): improved activity than ring open analogs

Source: patent publication US20240132484A1, “BROAD SPECTRUM ANTIVIRAL COMPOUNDS TARGETING THE SKI COMPLEX” (priority 2020, published 2024)
